In US20220354957A1, “PEPTIDES TARGETING MACROPHAGES, AND CONJUGATES, COMPOSITIONS, AND USES THEREOF” (Twinpig Biolab, Inc., priority 2021, published 2022):
Where no end group is shown, it is not given here.

Legend:
[1] = system: THP-1-derived M2 macrophages; assay: Cytotoxicity assay (CCK-8 cell viability); assay type: cell-based, human; settings: 0.05-20 μM, 24 h
Method: (§1) THP-1 cells were differentiated into macrophages by 24 h incubation with 100 nM PMA and polarized in M2 macrophages by incubation with 20 ng/ml of IL-4 and 20 ng/ml of IL-13 for 72 h. Polarized cells were treated with increasing concentrations of TAMpep and fragments of TAMpep (0.05-20 μM) for 24 h. Cell viability was analyzed using the CCK-8 assay: CCK-8 reagent (Enzo Life Sciences) was added to each well; incubation was continued for 2 hours, and absorbance was measured at 450 nm with a microplate reader (Molecular Devices).

[2] = system: THP-1-derived M2 macrophages; assay: Affinity test of FITC-conjugated peptides by flow cytometry; assay type: cell-based, human
Method: THP-1 monocytes were differentiated into macrophages by 24 h incubation with 100 nM phorbol 12-myristate 13-acetate (PMA, Sigma) followed by 24 h incubation in RPMI medium (Invitrogen). Macrophages were polarized in M1 macrophages (M1) by incubation with 20 ng/ml of IFN-γ (Prospec) and 100 ng/ml of LPS (Sigma). Macrophage M2 polarization(M2) was obtained by incubation with 20 ng/ml of interleukin (IL) 4 (Prospec) and 20 ng/ml of interleukin 13 (Prospec). M2-like tumor-associated macrophages were polarized by incubation with 20% conditioned medium of PC3 cells.
THP-1 cells were differentiated into macrophages by a 24 h incubation with 100 nM PMA and polarized in M2 macrophages by incubation with 20 ng/ml of IL-4 and 20 ng/ml of IL-13 for 72 h. Polarized cells were treated with 50 nM TAMpep and fragments of TAMpep or Mpep and alanine library of Mpep conjugated with FITC for 1 h. To test change of macrophage population in melanoma tissue, the single cells were isolated from tumor tissue through a 40 μm nylon mesh strainer after dissociation by DNase I (1 U/mL) and collagenase D (1 mg/ml). Cells were detected on BD FACSCalibur and BD FACSCantoII instruments and analyzed by FlowJo software.

[3] = system: M2 macrophages; assay: Affinity by immunofluorescence microscopy; assay type: cell-based, human
[4] = system: TRAMP-C2 cells; assay: Mouse model of prostate cancer (subcutaneous TRAMP-C2); assay type: in vivo; settings: TRAMP-C2 prostate cancer model
Description: (§2) BALB/c and C57BL/6 (B6) wild-type mice were purchased from DBL. For the subcutaneous tumor model of melanoma and prostate cancer, CT26 (3×10^5 cells/mouse), B16F10 (1×10^6 cells/mouse) and TRAMP-C2 cells (1×10^6 cells/mouse) were mixed with Matrigel matrix (Corning) and inoculated subcutaneously into the right flank of the mice, and 4T1 (1×10^5 cells/mouse) cells mixed with Matrigel matrix and inoculated into a 4th mammary fat pad of the mice. TAMpepK, and MpepK peptides (200 nmol/kg) were injected intraperitoneally every 3 days, beginning at day 7 after tumor inoculation, and tumor volume was measured by electronic caliper. All tumor tissues were harvested after the end of the study and tumor weight was measured by an electronic balance.
Cells were harvested and lysed in PRO-PREP protein extraction solution (iNtRON, Bio Inc, Sungnam, Korea). Protein concentrations were measured with a Bradford Protein Assay Reagent kit (Bio-Rad, Richmond, CA, USA). Proteins were fractionated by 10% SDS-polyacrylamide gels electrophoresis (PAGE), and transferred onto polyvinylidene difluoride (PVDF) membranes. These were incubated with anti-arginase 1, anti-CD206, anti-caspase 3, anti-E-cadherin, anti-fibronectin, anti-PCNA, anti-TGF-β, anti-MMP9, and anti-β-actin Ab as primary antibodies. Goat anti-rabbit horseradish peroxidase-conjugated IgG or goat anti-mouse horseradish peroxidase-conjugated IgG (Abcam, Cambridge, Mass., USA) served as secondary antibodies. Protein bands were detected with a chemiluminescence reagent kit (SurModics).

[5] = Cytotoxicity assay (CCK-8 cell viability); assay type: cell-based, human; settings: THP-1-derived M2 macrophages, CCK-8
Method: as §1

[6] = system: mouse RBC; assay: Hemolytic activity assay; assay type: cell-based; settings: 0.1-50 μM, 37° C., 1 h, read-out: hemolysis IC50
Method: Mouse blood samples were collected in tubes containing heparin as an anticoagulant and stored at 4 ° C. before use. Whole blood sample were centrifuged at 1,500×g for 5 min and the resulting plasma fraction was removed from the samples. The pellets were washed with an equal volume of saline, mixing by inversion. The centrifuging and washing steps were repeated 5 times. Red blood cells were counted by a hemocytometer and adjusted to […]. Red blood cells were then incubated at 37° C. for 1 h in 1% Triton X-100 (positive control), in PBS (blank), or with increasing concentrations of TAMpep and Mpep (0.1-50 μM) were evaluated. The samples were then centrifuged at 10,000 g for 5 min, the supernatant was separated from the pellet, and its absorbance measured at 570 nm. The relative optical density compared to that of the suspension treated with 1% Triton X-100 was defined as the percentage of hemolysis.

[7] = system: murine melanoma cells (B16F10 cell line); assay: Mouse model of melanoma (subcutaneous B16F10); assay type: in vivo; settings: B16F10 melanoma model, vs PBS group
Description: as §2

[8] = Cytotoxicity in human melanoma cells; assay type: cell-based; settings: Sk-Mel-28 cells

CC[C@H](C)[C@H](NC(=O)[C@H](CC(C)C)NC(=O)[C@H](C)NC(=O)[C@@H]1CCCN1C(=O)[C@H](CC(C)C)NC(=O)CNC(=O)[C@@H](NC(=O)[C@@H](NC(=O)[C@H](CC(C)C)NC(=O)[C@@H](NC(C)=O)C(C)C)[C@@H](C)O)[C@@H](C)O)C(=O)N[C@@H](CO)C(=O)N[C@@H](Cc1c[nH]c2ccccc12)C(=O)N[C@H](C(=O)N[C@@H](CCCCN)C(=O)N[C@@H](CCCNC(=N)N)C(=O)N[C@@H](CCCCN)C(=O)N[C@@H](CCCNC(=N)N)C(=O)N[C@@H](CCC(N)=O)C(=O)N[C@@H](CCC(N)=O)C(=O)O)[C@@H](C)CC [Mpep, Val-Leu-Thr-Thr-Gly-Leu-Pro-Ala-Leu-Ile-Ser-Trp-Ile-Lys-Arg-Lys-Arg-Gln-Gln]
cytotoxic effect in M2 macrophages (in words) [1]: low cytotoxicity

CC[C@H](C)[C@H](NC(=O)CN)C(=O)NCC(=O)N[C@@H](C)C(=O)N[C@H](C(=O)N[C@@H](CC(C)C)C(=O)N[C@@H](CCCCN)C(=O)N[C@H](C(=O)N[C@@H](CC(C)C)C(=O)N[C@H](C(=O)N[C@H](C(=O)NCC(=O)N[C@@H](CC(C)C)C(=O)N1CCC[C@H]1C(=O)N[C@@H](C)C(=O)N[C@@H](CC(C)C)C(=O)N[C@H](C(=O)N[C@@H](CO)C(=O)N[C@@H](Cc1c[nH]c2ccccc12)C(=O)N[C@H](C(=O)N[C@@H](CCCCN)C(=O)N[C@@H](CCCNC(=N)N)C(=O)N[C@@H](CCCCN)C(=O)N[C@@H](CCCNC(=N)N)C(=O)N[C@@H](CCC(N)=O)C(=O)N[C@@H](CCC(N)=O)C(N)=O)[C@@H](C)CC)[C@@H](C)CC)[C@@H](C)O)[C@@H](C)O)C(C)C)C(C)C [TAMpep, reference compound]
affinity in M2 macrophages compared to M0 and M1 macrophages ([2]; FITC-conjugated peptides, THP-1-derived M0, M1, M2, FACS): significantly more high affinity | affinity in M2 macrophages by immunofluorescence microscopy [3]: high affinity | body weight of mice [4]: did not significantly change

CC[C@H](C)[C@H](NC(=O)CNC(C)=O)C(=O)NCC(=O)N[C@@H](C)C(=O)N[C@H](C(=O)N[C@@H](CC(C)C)C(=O)N[C@@H](CCCCN)C(=O)N[C@H](C(=O)N[C@@H](CC(C)C)C(=O)N[C@H](C(=O)N[C@H](C(=O)NCC(=O)N[C@@H](CC(C)C)C(=O)N1CCC[C@H]1C(=O)N[C@@H](C)C(=O)N[C@@H](CC(C)C)C(=O)N[C@H](C(=O)N[C@@H](CO)C(=O)N[C@@H](Cc1c[nH]c2ccccc12)C(=O)N[C@H](C(=O)N[C@@H](CCCCN)C(=O)N[C@@H](CCCNC(=N)N)C(=O)N[C@@H](CCCCN)C(=O)N[C@@H](CCCNC(=N)N)C(=O)N[C@@H](CCC(N)=O)C(=O)N[C@@H](CCC(N)=O)C(=O)NCC(=O)NCC(=O)NCC(=O)NCC(=O)N[C@@H](CO)C(=O)N[C@H](CCCCN)C(=O)N[C@H](CC(C)C)C(=O)N[C@H](C)C(=O)N[C@H](CCCCN)C(=O)N[C@H](CC(C)C)C(=O)N[C@H](C)C(=O)N[C@H](CCCCN)C(=O)N[C@H](CCCCN)C(=O)N[C@H](CC(C)C)C(=O)N[C@H](C)C(=O)N[C@H](CCCCN)C(=O)N[C@H](CC(C)C)C(=O)N[C@H](C)C(=O)N[C@H](CCCCN)C(=O)O)[C@@H](C)CC)[C@@H](C)CC)[C@@H](C)O)[C@@H](C)O)C(C)C)C(C)C [TAMpepK]
IC50 [5]: 1.05 µM | body weight of mice [4]: did not significantly change | IC50 [6]: 1.12 µM | body weight of mice [7]: not significantly changed | IC50 [8]: 3.58 µM

CC(=O)N[C@H](CCCCN)C(=O)N[C@H](CC(C)C)C(=O)N[C@H](C)C(=O)N[C@H](CCCCN)C(=O)N[C@H](CC(C)C)C(=O)N[C@H](C)C(=O)N[C@H](CCCCN)C(=O)N[C@H](CCCCN)C(=O)N[C@H](CC(C)C)C(=O)N[C@H](C)C(=O)N[C@H](CCCCN)C(=O)N[C@H](CC(C)C)C(=O)N[C@H](C)C(=O)N[C@H](CCCCN)C(=O)O [dKLA, d-Lys-d-Leu-d-Ala-d-Lys-d-Leu-d-Ala-d-Lys-d-Lys-d-Leu-d-Ala-d-Lys-d-Leu-d-Ala-d-Lys, reference compound]
body weight of mice [4]: did not significantly change

A18: the eleventh S (serine) of Mpep is substituted with alanine (SEQ ID NO:21) (Ac-VLTTGLPALIAWIKRKRQQ)
affinity of alanine-substituted Mpep peptides in M2 macrophages ([2]; alanine-substituted library of Mpep, FITC-conjugated, FACS): increased affinity
